From patent publication US10407414B2, “Mannose derivatives for treating bacterial infections” (priority 2015, dated 2019)

system: bacterial strain LF82 binding to the glycoprotein BSA-(Mannose)3 (FimH antagonists); test: Bacterial Binding Assay (BBA); format: cell-based, Escherichia coli; settings: read-out: Bacterial Binding Assay IC50 ± SEM
Summary of the method: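 Luciferase-expressing E. coli LF82, grown overnight at 37 °C without shaking, added as 2×10^8 bacteria/mL suspension with compound in BSA/D-PBS binding buffer. Wells were coated with 0.5–2 μg/mL BSA-(Man)3 and BSA-blocked, with 40–75 min binding at room temperature. After washing, adherent bacteria were read by luciferase luminescence and IC50 derived.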

In order of falling IC50:
1. OC[C@H]1O[C@H](C#Cc2nccc3cn[nH]c23)[C@@H](O)[C@@H](O)[C@@H]1O [Compound 14, (2R,3S,4R,5S,6R)-2-(hydroxymethyl)-6-[2-(1H-pyrazolo[3,4-c]pyridin-7-yl)ethynyl]tetrahydropyran-3,4,5-triol]  350 ± 80 nM
2. OC[C@H]1O[C@H](C#Cc2cccc3nn[nH]c23)[C@@H](O)[C@@H](O)[C@@H]1O [Compound 8, (2R,3S,4R,5S,6R)-2-[2-(3H-benzotriazol-4-yl)ethynyl]-6-(hydroxymethyl)tetrahydropyran-3,4,5-triol]  180 ± 40 nM
3. OC[C@H]1O[C@H](C#Cc2cccc3cn[nH]c23)[C@@H](O)[C@@H](O)[C@@H]1O [Compound 1, (2R,3S,4R,5S,6R)-2-(hydroxymethyl)-6-[2-(1H-indazol-7-yl)ethynyl]tetrahydropyran-3,4,5-triol]  98 ± 22 nM
4. Cc1cc(C#C[C@H]2O[C@H](CO)[C@@H](O)[C@H](O)[C@@H]2O)c2cn[nH]c2c1 [Compound 7, (2R,3S,4R,5S,6R)-2-(hydroxymethyl)-6-[2-(6-methyl-1H-indazol-4-yl)ethynyl]tetrahydropyran-3,4,5-triol]  76 ± 26 nM
5. O=C(O)c1cc(C#C[C@H]2O[C@H](CO)[C@@H](O)[C@H](O)[C@@H]2O)c2[nH]ncc2c1 [Compound 58, 7-[2-[(2R,3S,4R,5S,6R)-3,4,5-trihydroxy-6-(hydroxymethyl)tetrahydropyran-2-yl]ethynyl]-1H-indazole-5-carboxylic acid]  74 ± 15 nM
6. CCCCc1cc(C#C[C@H]2O[C@H](CO)[C@@H](O)[C@H](O)[C@@H]2O)c2c(cnn2C)c1 [Compound 22, (2R,3S,4R,5S,6R)-2-[2-(5-butyl-1-methyl-indazol-7-yl)ethynyl]-6-(hydroxymethyl)tetrahydropyran-3,4,5-triol]  53 ± 4 nM
7. Cc1cc(C#C[C@H]2O[C@H](CO)[C@@H](O)[C@H](O)[C@@H]2O)c2[nH]ccc2c1 [Compound 4, (2R,3S,4R,5S,6R)-2-(hydroxymethyl)-6-[2-(5-methyl-1H-indol-7-yl)ethynyl]tetrahydropyran-3,4,5-triol]  46 ± 12 nM
8. O=S1(=O)CCN(CC#Cc2cc(C#C[C@H]3O[C@H](CO)[C@@H](O)[C@H](O)[C@@H]3O)c3[nH]ncc3c2)CC1 [Compound 49, (2R,3S,4R,5S,6R)-2-[2-[5-[3-(1,1-dioxo-1,4-thiazinan-4-yl)prop-1-ynyl]-1H-indazol-7-yl]ethynyl]-6-(hydroxymethyl)tetrahydropyran-3,4,5-triol]  26 ± 0.5 nM
9. CC(C)CNCC#Cc1cc(C#C[C@H]2O[C@H](CO)[C@@H](O)[C@H](O)[C@@H]2O)c2[nH]ncc2c1 [Compound 52, (2R,3S,4R,5S,6R)-2-(hydroxymethyl)-6-[2-[5-[3-(isobutylamino)prop-1-ynyl]-1H-indazol-7-yl]ethynyl]tetrahydropyran-3,4,5-triol]  22 ± 10 nM
10. O=c1[nH]c2cc(Cl)cc(C#C[C@H]3O[C@H](CO)[C@@H](O)[C@H](O)[C@@H]3O)c2[nH]1 [Compound 12, 6-chloro-4-[2-[(2R,3S,4R,5S,6R)-3,4,5-trihydroxy-6-(hydroxymethyl)tetrahydropyran-2-yl]ethynyl]-1,3-dihydrobenzimidazol-2-one]  16 ± 6 nM
11. OC[C@H]1O[C@H](C#Cc2cc(C#Cc3cccc(O)c3)cc3cn[nH]c23)[C@@H](O)[C@@H](O)[C@@H]1O [Compound 47, (2R,3S,4R,5S,6R)-2-(hydroxymethyl)-6-[2-[5-[2-(3-hydroxyphenyl)ethynyl]-1H-indazol-7-yl]ethynyl]tetrahydropyran-3,4,5-triol]  12 ± 6 nM
12. CCCCc1cc(C#C[C@H]2O[C@H](CO)[C@@H](O)[C@H](O)[C@@H]2O)c2nn(C)cc2c1 [Compound 23, (2R,3S,4R,5S,6R)-2-[2-(5-butyl-2-methyl-indazol-7-yl)ethynyl]-6-(hydroxymethyl)tetrahydropyran-3,4,5-triol]  9 nM
13. OCC#Cc1cc(C#C[C@H]2O[C@H](CO)[C@@H](O)[C@H](O)[C@@H]2O)c2[nH]ncc2c1 [Compound 48, (2R,3S,4R,5S,6R)-2-(hydroxymethyl)-6-[2-[5-(3-hydroxyprop-1-ynyl)-1H-indazol-7-yl]ethynyl]tetrahydropyran-3,4,5-triol]  9 ± 0.7 nM
14. CN(CC#Cc1cc(C#C[C@H]2O[C@H](CO)[C@@H](O)[C@H](O)[C@@H]2O)c2[nH]ncc2c1)Cc1ccccc1 [Compound 51, (2R,3S,4R,5S,6R)-2-[2-[5-[3-[benzyl(methyl)amino]prop-1-ynyl]-1H-indazol-7-yl]ethynyl]-6-(hydroxymethyl)tetrahydropyran-3,4,5-triol]  3 ± 0.4 nM
15. CNC(=O)c1ccc(F)c(-c2cc(C#C[C@H]3O[C@H](CO)[C@@H](O)[C@H](O)[C@@H]3O)c3[nH]ncc3c2)c1 [Compound 90, 4-fluoro-N-methyl-3-[7-[2-[(2R,3S,4R,5S,6R)-3,4,5-trihydroxy-6-(hydroxymethyl)tetrahydropyran-2-yl]ethynyl]-1H-indazol-5-yl]benzamide]  3 nM
16. CC(=O)Nc1cccc(-c2cc(C#C[C@H]3O[C@H](CO)[C@@H](O)[C@H](O)[C@@H]3O)c3[nH]ncc3c2)c1 [Compound 36, N-[3-[7-[2-[(2R,3S,4R,5S,6R)-3,4,5-trihydroxy-6-(hydroxymethyl)tetrahydropyran-2-yl]ethynyl]-1H-indazol-5-yl]phenyl]acetamide]  2 ± 0.2 nM
17. OC[C@H]1O[C@H](C#Cc2cc(-c3ccc(OCc4ccccc4)nc3)cc3cn[nH]c23)[C@@H](O)[C@@H](O)[C@@H]1O [Compound 75, (2R,3S,4R,5S,6R)-2-[2-[5-(6-benzyloxy-3-pyridyl)-indazol-7-yl]ethynyl]-6-(hydroxymethyl)tetrahydropyran-3,4,5-triol]  2 ± 0.7 nM
18. CCCCc1cc(C#C[C@H]2O[C@H](CO)[C@@H](O)[C@H](O)[C@@H]2O)c2[nH]cnc2c1 [Compound 20, (2R,3S,4R,5S,6R)-2-[2-(6-butyl-3H-benzimidazol-4-yl)ethynyl]-6-(hydroxymethyl)tetrahydropyran-3,4,5-triol]  2 ± 0.2 nM
19. Cc1ccc(-c2cc(C#C[C@H]3O[C@H](CO)[C@@H](O)[C@H](O)[C@@H]3O)c3[nH]ncc3c2)c(C)c1 [Compound 88, (2R,3S,4R,5S,6R)-2-[2-[5-(2,4-dimethylphenyl)-1H-indazol-7-yl]ethynyl]-6-(hydroxymethyl)tetrahydropyran-3,4,5-triol]  2 nM
20. OC[C@H]1O[C@H](C#Cc2cc(-c3ccc4c(c3)OCO4)cc3cn[nH]c23)[C@@H](O)[C@@H](O)[C@@H]1O [Compound 37, (2R,3S,4R,5S,6R)-2-[2-[5-(1,3-benzodioxol-5-yl)-1H-indazol-7-yl]ethynyl]-6-(hydroxymethyl)tetrahydropyran-3,4,5-triol]  0.7 ± 0.02 nM
21. Cc1ccccc1-c1cc(C#C[C@H]2O[C@H](CO)[C@@H](O)[C@H](O)[C@@H]2O)c2[nH]ncc2c1 [Compound 26]  0.7 ± 0.3 nM
22. CCCCc1cc(C#C[C@H]2O[C@H](CO)[C@@H](O)[C@H](O)[C@@H]2O)c2[nH]c(=O)[nH]c2c1 [Compound 15, 6-butyl-4-[2-[(2R,3S,4R,5S,6R)-3,4,5-trihydroxy-6-(hydroxymethyl)tetrahydropyran-2-yl]ethynyl]-1,3-dihydrobenzimidazol-2-one]  0.7 ± 0.2 nM
23. NC(=O)c1cccc(-c2cc(C#C[C@H]3O[C@H](CO)[C@@H](O)[C@H](O)[C@@H]3O)c3[nH]ncc3c2)c1 [Compound 31, 3-[7-[2-[(2R,3S,4R,5S,6R)-3,4,5-trihydroxy-6-(hydroxymethyl)tetrahydropyran-2-yl]ethynyl]-1H-indazol-5-yl]benzamide]  0.7 ± 0.01 nM
24. Cc1cc(-c2cc(C#C[C@H]3O[C@H](CO)[C@@H](O)[C@H](O)[C@@H]3O)c3[nH]ncc3c2)cc(C)n1 [Compound 83, (2R,3S,4R,5S,6R)-2-[2-[5-(2,6-dimethyl-4-pyridyl)-1H-indazol-7-yl]ethynyl]-6-(hydroxymethyl)tetrahydropyran-3,4,5-triol]  0.7 ± 0.5 nM
25. Cc1cc(-c2cc(C#C[C@H]3O[C@H](CO)[C@@H](O)[C@H](O)[C@@H]3O)c3[nH]ncc3c2)ccn1 [Compound 84, (2R,3S,4R,5S,6R)-2-(hydroxymethyl)-6-[2-[5-(2-methyl-4-pyridyl)-1H-indazol-7-yl]ethynyl]tetrahydropyran-3,4,5-triol]  0.5 ± 0.2 nM
26. COc1ccc(-c2cc(C#C[C@H]3O[C@H](CO)[C@@H](O)[C@H](O)[C@@H]3O)c3[nH]ncc3c2)cn1 [Compound 73, (2R,3S,4R,5S,6R)-2-(hydroxymethyl)-6-[2-[5-(6-methoxy-3-pyridyl)-1H-indazol-7-yl]ethynyl]tetrahydropyran-3,4,5-triol]  0.5 ± 0.09 nM
27. NS(=O)(=O)c1cccc(-c2cc(C#C[C@H]3O[C@H](CO)[C@@H](O)[C@H](O)[C@@H]3O)c3[nH]ncc3c2)c1 [Compound 41, 3-[7-[2-[(2R,3S,4R,5S,6R)-3,4,5-trihydroxy-6-(hydroxymethyl)tetrahydropyran-2-yl]ethynyl]-1H-indazol-5-yl]benzenesulfonamide]  0.4 ± 0.04 nM
28. Cc1cc(-c2cc(C#C[C@H]3O[C@H](CO)[C@@H](O)[C@H](O)[C@@H]3O)c3[nH]ncc3c2)c[nH]c1=O [Compound 79, 3-methyl-5-[7-[2-[(2R,3S,4R,5S,6R)-3,4,5-trihydroxy-6-(hydroxymethyl)tetrahydropyran-2-yl]ethynyl]-1H-indazol-5-yl]-1H-pyridin-2-one]  0.4 ± 0.1 nM
29. OC[C@H]1O[C@H](C#Cc2cc(-c3ccc(F)cc3F)cc3cn[nH]c23)[C@@H](O)[C@@H](O)[C@@H]1O [Compound 81, (2R,3S,4R,5S,6R)-2-[2-[5-(2,4-difluorophenyl)-1H-indazol-7-yl]ethynyl]-6-(hydroxymethyl)tetrahydropyran-3,4,5-triol]  0.4 ± 0.2 nM
30. CCOc1cc(C)c(-c2cc(C#C[C@H]3O[C@H](CO)[C@@H](O)[C@H](O)[C@@H]3O)c3[nH]ncc3c2)cn1 [Compound 54, (2R,3S,4R,5S,6R)-2-[2-[5-(6-ethoxy-4-methyl-3-pyridyl)-1H-indazol-7-yl]ethynyl]-6-(hydroxymethyl)tetrahydropyran-3,4,5-triol]  0.4 ± 0.1 nM
